Some test systems named below: SF-268; DMS-114; 786-0; IGROV-1; SK-OV-3; NCI-H226; CCRF-CEM; Malme-3M; DLD-1; LOX IMVI; HT-29; COLO 205; UO-31; SNB-19; DMS-273; SR; DU-145; MDA-MB-231; NCI/ADR-RES; MCF7.
What all share (assay): NCI anticancer screen, dose series, 48 h

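Test compounds were applied to cells in 96-well plates for 48 hours at 5 doses. GI50: concentration for 50% inhibition of growth.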 Activity calls are given as the source filed them. Rule as the data show it: active = GI50 up to about 1.1 µM and inactive = higher.

Regarding `O=C1CCC2(c3ccccc3)Nc3ncccc3N12` (stereo not drawn), the GI50 in the test with SF-268, in the test with DMS-114, in the test on 786-0, in the test with IGROV-1, with SK-OV-3 and in the test on NCI-H226 was > 100 µM (inactive) throughout. Moreover, the GI50 in the test with CCRF-CEM, with Malme-3M, with DLD-1, in the test with LOX IMVI, in the test with HT-29 and with COLO 205 was > 100 µM (inactive) each time. The GI50 in the test on UO-31 is > 100 µM (inactive).

With `CN(C)CCC(/C=C/c1ccccc1)=N\Nc1ccccc1`, the GI50 in the test with SF-268 was 0.736 µM (active); with DMS-114, 2.07 µM (inactive); with 786-0 it was 2.03 µM (inactive); with SNB-19 it was 3.88 µM (inactive); in the test with IGROV-1 it was 2.82 µM (inactive); with DMS-273, 0.571 µM (active). The GI50 with SK-OV-3 is 3.56 µM (inactive); in the test on CCRF-CEM, 0.526 µM (active); with Malme-3M, 3.07 µM (inactive); with DLD-1, 0.596 µM (active); in the test with LOX IMVI, 0.0493 µM (active); in the test with HT-29, 2.97 µM (inactive). Besides, the GI50 is 1.96 µM (inactive) in the test with COLO 205 and 1.4 µM (inactive) with UO-31.

With `CCN(CC)CC(=O)N1CCc2c([nH]c3ccccc23)C1c1cccnc1` (stereo not drawn), the GI50 in the test on SF-268, with DMS-114, in the test on 786-0, in the test on SNB-19, with IGROV-1 and in the test with DMS-273 was > 100 µM (inactive) each time. Besides, the GI50 with SK-OV-3 was > 100 µM (inactive); with CCRF-CEM, > 100 µM (inactive); with DLD-1, > 100 µM (inactive); with LOX IMVI it was > 100 µM (inactive); in the test with HT-29, > 100 µM (inactive); in the test on UO-31, 26.9 µM (inactive).

Take `COc1ccc([C@@]2(O)c3c(ccc(O)c3OC)[C@H]2OC)c(OC)c1`: the GI50 is 75.9 µM (inactive) in the test with SF-268; 22.1 µM (inactive) in the test on DMS-114; 35.6 µM (inactive) in the test with SR; 41.8 µM (inactive) in the test with 786-0; > 100 µM (inactive) in the test on SNB-19; > 100 µM (inactive) with IGROV-1. Moreover, the GI50 in the test with SK-OV-3 was 28.6 µM (inactive); with NCI-H226, > 100 µM (inactive); in the test with CCRF-CEM, 36.6 µM (inactive); with Malme-3M, > 100 µM (inactive); in the test with DLD-1 it was 47.3 µM (inactive); in the test on HT-29, 37.2 µM (inactive). Also, the figures for the GI50 with COLO 205 and with UO-31 were 44.2 µM (inactive) and 69.3 µM (inactive), respectively.

On to `OCCOc1ccc(-c2cc(-c3ccccn3)nc(-c3ccccn3)c2)cc1`, for which the GI50 in the test on SF-268 is 0.107 µM (active); in the test with DMS-114, 0.0552 µM (active); in the test on SR, 0.11 µM (active); in the test with DU-145 it was 0.106 µM (active); in the test on 786-0, 0.0736 µM (active); in the test on SNB-19, 0.284 µM (active). Besides, the GI50 in the test with IGROV-1 is 0.286 µM (active); in the test on DMS-273, 0.143 µM (active); in the test on SK-OV-3, 0.308 µM (active); with NCI-H226, 0.661 µM (active); in the test with CCRF-CEM, 0.0618 µM (active); in the test on MDA-MB-231 it was 1.39 µM (inactive). Moreover, the GI50 with Malme-3M was 0.309 µM (active); with NCI/ADR-RES it was 0.202 µM (active); with LOX IMVI it was 0.0916 µM (active); with HT-29, 0.112 µM (active); in the test with COLO 205, 0.115 µM (active); with MCF7 it was 0.277 µM (active). Further, in the test with UO-31, the GI50 is 0.124 µM (active).

As to `O=C(NC1C2CC3CC(C2)CC1C3)c1ccncn1` (stereo not drawn), the GI50 with SF-268, in the test on DMS-114, in the test on 786-0, in the test on SNB-19, in the test with IGROV-1 and in the test with DMS-273 was > 100 µM (inactive) each time. The GI50 in the test on NCI-H226, in the test on CCRF-CEM, with Malme-3M, in the test with DLD-1, with HT-29 and in the test with COLO 205 was > 100 µM (inactive) in each case. In addition, the GI50 in the test on UO-31 was > 100 µM (inactive).

As for `NC(=O)c1ncn(CCN2CCN(C(=O)NCCCCCCNC(=O)N3CCN(CCn4cnc(C(N)=O)c4N)CC3)CC2)c1N`, the GI50 with SF-268, with SR, with 786-0, with SNB-19, with IGROV-1 and in the test with DMS-273 was > 100 µM (inactive) each time. Moreover, the GI50 in the test with SK-OV-3, in the test with NCI-H226, with CCRF-CEM, with Malme-3M, with DLD-1 and in the test with LOX IMVI was > 100 µM (inactive) each time. In addition, the GI50 with HT-29, in the test with COLO 205 and in the test on UO-31 was > 100 µM (inactive) each time.

Turning to `O=c1c2c(-c3ccccc3)c3ccccc3nc2cnn1-c1ccccc1`, the GI50 is > 100 µM (inactive) in the test with SF-268; 57.1 µM (inactive) with DMS-114; 33.2 µM (inactive) with SR; > 100 µM (inactive) in the test with 786-0; > 100 µM (inactive) in the test on SNB-19; > 100 µM (inactive) with IGROV-1. Besides, the GI50 was > 100 µM (inactive) in the test with DMS-273; > 100 µM (inactive) with SK-OV-3; > 100 µM (inactive) in the test on NCI-H226; 81.7 µM (inactive) with CCRF-CEM; > 100 µM (inactive) in the test with Malme-3M; > 100 µM (inactive) in the test on LOX IMVI. Moreover, the GI50 was 70.3 µM (inactive) in the test on HT-29, 67 µM (inactive) in the test on COLO 205 and > 100 µM (inactive) with UO-31.

For the compound `C[C@@H](CC(O)C1OC1(C)C)[C@@H]1CC[C@]2(C)C3=CCC4C(C)(C)C(O)CC[C@]4(C)C3CCC12C` (stereo partly drawn), the GI50 in the test on SF-268 is 26.3 µM (inactive); in the test on SR, 16.3 µM (inactive); with 786-0, 16 µM (inactive); with SNB-19, 37.6 µM (inactive); with IGROV-1, 31.3 µM (inactive); with DMS-273, 13.3 µM (inactive). For the same compound, the GI50 with SK-OV-3 is 19.8 µM (inactive); in the test with NCI-H226, 18.5 µM (inactive); in the test on CCRF-CEM it was 27.5 µM (inactive); in the test with Malme-3M, 13 µM (inactive); with DLD-1, 16.6 µM (inactive); in the test on LOX IMVI, 24.8 µM (inactive). Further, the GI50 with HT-29 was 11.4 µM (inactive); in the test on COLO 205, 21.3 µM (inactive); in the test on UO-31 it was 18.6 µM (inactive).

Take `COc1cc(C[S+]2CCCC2)c(SC)cc1C[S+]1CCCC1`: the GI50 with SF-268, in the test with DMS-114, in the test on 786-0, with IGROV-1, in the test with SK-OV-3 and in the test on NCI-H226 was > 100 µM (inactive) in each case. For the same compound, the GI50 with CCRF-CEM, in the test on Malme-3M, in the test on DLD-1, with LOX IMVI, in the test on HT-29 and in the test on COLO 205 was > 100 µM (inactive) each time. Also, the GI50 in the test with UO-31 was > 100 µM (inactive).

For the origin of these results see ChEMBL document CHEMBL1201862, “PubChem BioAssay data set” (2004).
